The text below walks through data of US20200031785A1, “METHODS FOR TREATING CHRONIC PAIN AND OPIOID DEPENDENCE USING ADENYLYL CYCLASE INHIBITORS” (Purdue Research Foundation, priority 2017, published 2020).

Test [1] deals with T1, hAC8 (Homo sapiens, UniProt P40145).
T1 construct: expressed in transfected cells
Put plainly: Cyclic AMP accumulation in HEK cells stably expressing AC8, stimulated with A23187 (HTRF). The conditions noted are these: HEK-AC8 cells; for inhibition at 30 µM: HEK293; for IC50: read-out: HEK-AC8 IC50. Type of test: cell-based. The protocol: (§1) Fresh powders of several robust inhibitors (>90% inhibition) were evaluated in multiple confirmation assays assessing the dose response relationship for inhibiting AC1 and AC8 activity. Confirmation assays used A23817 to selectively stimulate recombinant AC1 or AC8 in the HEK cell background (Cumbay and Watts (2001), J. Pharmacol Exp Ther 297:1201-1399). This approach takes advantage of one unique regulatory property of AC1 for the development of selective inhibitors. Both AC1 and AC8 are robustly activated by Ca^2+/CaM under a variety of conditions, whereas the effects of Ca^2+/CaM on AC3 are modest and conditional requiring activation by G proteins. Previous studies have identified unique Ca^2+/CaM binding domains as one possible site of interaction to achieve AC1 (vs. AC8) selectivity (Masada et al., 2012, Biochemistry 51:7917-7929).
(§2) The primary technology we employed to measure cAMP accumulation was a homogenous time-resolved fluorescence (HTRF) assay, the same technology utilized in the primary screen. […] This could be due to either 1) the chemical scaffolds are exquisitely selective toward the AC family of enzymes or 2) the library has not been screened against a sufficient number of targets. The answer is likely a combination of the two; nonetheless, the lack of biological data to date bodes well for these series and any potential off-target promiscuity.
(§3) Human embryonic kidney (HEK) cells stably expressing AC1, AC8, or AC1 with the MOR were cultured in Dulbecco's Modified Eagle Medium (Life Technologies, Grand Island, N.Y.) supplemented with 5% bovine calf serum (Hyclone, Logan, Utah), 5% fetal clone I (Hyclone), Antibiotic-Antimycotic (Life Technologies), and G418 (Invivogen, San Diego, Calif.) (HEK-AC1), or hygromycin B (Fisher Scientific, Pittsburgh, Pa.) (HEK-AC8), or G418 and puromycin (Sigma-Aldrich) (HEK-AC1/MOR). Chinese hamster ovary (CHO) cells expressing the MOR (CHO-MOR) in the PathHunter® β-Arrestin GPCR assay platform were purchased from DiscoveRx (Freemont, Calif.). Cells were grown in Ham's F12 media supplemented with 1 mM L-glutamine (Thermo Scientific, West Palm Beach, Fla.), 10% fetal bovine serum (Hyclone), 50 U/ml penicillin, 50 μg/ml streptomycin (Life Technologies), G418 and hygromycin B. Cells were grown and frozen as previously described (J. M. Conley, et al., J Vis Exp, e51218 (2014)).
(§4) Cyclic AMP accumulation was measured as previously described (Brust, et al., J. Pharmacol. Exp. Ther. 352, 480-493(2015)). Briefly, cryopreserved cells were thawed, resuspended in optiMEM (Life Technologies), and plated in white, flat bottom, low-volume, tissue culture-treated 384 well plates (PerkinElmer, Shelton, Conn.). Plates with cells were incubated in a 37° C. humidified incubator for 1 h. Inhibitors were added and plates were incubated at room temperature for 30 min followed by the addition of AC stimulants in the presence of 500 μM IBMX. Cells were incubated at room temperature for 1 h and cAMP accumulation was measured using Cisbio's cAMP kit (Cisbio Bioassays, Bedford, Mass.) according to the manufacturer's instructions.

Test [2] has as its target T2, hAC1 (Homo sapiens, UniProt Q08828).
T2 construct: expressed in transfected cells
Put plainly: Cyclic AMP accumulation in HEK cells stably expressing AC1, stimulated with A23187 (HTRF). The test is classed as cell-based. The conditions noted are these: HEK-AC1 cells; for inhibition at 30 µM: HEK293; for IC50: read-out: HEK-AC1 IC50. The method, then: The development and mechanistic characterization of AC1-selective small molecule inhibitors is believed to provide novel non-opioid weapons in the war on chronic pain. We identified our initial hits via screening 10,000 selected compounds from the Life Chemicals collection. The screen was carried out using HEK cells stably expressing AC1 (HEK-AC1) and cyclic AMP accumulation was stimulated using the Ca^2+ ionophore, A23187 to selectively activate AC1. Compounds with potential chemical liabilities and PAINs were removed from further evaluation (Baell and Holloway, J. Med. Chem. 2010, 53, 2719-2740).
as §1, §2, §3, §4

T1 sequence (P40145 whole entry): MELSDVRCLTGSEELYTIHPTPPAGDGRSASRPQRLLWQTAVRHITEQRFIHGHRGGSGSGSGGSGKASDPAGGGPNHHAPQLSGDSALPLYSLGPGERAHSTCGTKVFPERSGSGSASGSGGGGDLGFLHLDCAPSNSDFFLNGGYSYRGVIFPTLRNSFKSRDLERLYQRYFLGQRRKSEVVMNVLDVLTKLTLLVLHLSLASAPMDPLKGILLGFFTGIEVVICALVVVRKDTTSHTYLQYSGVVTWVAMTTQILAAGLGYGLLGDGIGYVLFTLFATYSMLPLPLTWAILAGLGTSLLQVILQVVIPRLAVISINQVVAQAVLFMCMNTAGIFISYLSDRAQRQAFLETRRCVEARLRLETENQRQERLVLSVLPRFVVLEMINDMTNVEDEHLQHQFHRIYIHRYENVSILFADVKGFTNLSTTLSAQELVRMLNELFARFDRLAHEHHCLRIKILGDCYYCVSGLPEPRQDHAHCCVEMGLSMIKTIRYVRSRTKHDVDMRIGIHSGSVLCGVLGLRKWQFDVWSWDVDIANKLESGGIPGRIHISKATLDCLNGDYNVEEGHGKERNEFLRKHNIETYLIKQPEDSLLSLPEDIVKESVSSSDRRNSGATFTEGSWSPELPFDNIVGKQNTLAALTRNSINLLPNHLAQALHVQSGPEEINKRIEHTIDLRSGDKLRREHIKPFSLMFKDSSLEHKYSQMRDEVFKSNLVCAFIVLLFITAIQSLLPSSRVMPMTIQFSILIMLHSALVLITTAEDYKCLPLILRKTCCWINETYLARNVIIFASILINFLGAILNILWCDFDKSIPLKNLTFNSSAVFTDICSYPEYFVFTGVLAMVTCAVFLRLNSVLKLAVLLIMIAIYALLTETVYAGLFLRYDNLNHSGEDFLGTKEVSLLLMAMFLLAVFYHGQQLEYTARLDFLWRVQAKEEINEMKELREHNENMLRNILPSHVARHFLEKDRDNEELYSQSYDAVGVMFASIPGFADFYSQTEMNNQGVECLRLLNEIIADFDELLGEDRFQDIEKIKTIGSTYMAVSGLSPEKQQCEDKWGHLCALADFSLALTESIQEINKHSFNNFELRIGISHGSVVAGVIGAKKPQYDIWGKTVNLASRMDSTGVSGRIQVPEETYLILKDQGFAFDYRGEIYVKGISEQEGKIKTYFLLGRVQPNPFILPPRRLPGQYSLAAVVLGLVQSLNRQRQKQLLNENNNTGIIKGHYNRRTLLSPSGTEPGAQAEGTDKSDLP
T2 sequence (Q08828 whole entry): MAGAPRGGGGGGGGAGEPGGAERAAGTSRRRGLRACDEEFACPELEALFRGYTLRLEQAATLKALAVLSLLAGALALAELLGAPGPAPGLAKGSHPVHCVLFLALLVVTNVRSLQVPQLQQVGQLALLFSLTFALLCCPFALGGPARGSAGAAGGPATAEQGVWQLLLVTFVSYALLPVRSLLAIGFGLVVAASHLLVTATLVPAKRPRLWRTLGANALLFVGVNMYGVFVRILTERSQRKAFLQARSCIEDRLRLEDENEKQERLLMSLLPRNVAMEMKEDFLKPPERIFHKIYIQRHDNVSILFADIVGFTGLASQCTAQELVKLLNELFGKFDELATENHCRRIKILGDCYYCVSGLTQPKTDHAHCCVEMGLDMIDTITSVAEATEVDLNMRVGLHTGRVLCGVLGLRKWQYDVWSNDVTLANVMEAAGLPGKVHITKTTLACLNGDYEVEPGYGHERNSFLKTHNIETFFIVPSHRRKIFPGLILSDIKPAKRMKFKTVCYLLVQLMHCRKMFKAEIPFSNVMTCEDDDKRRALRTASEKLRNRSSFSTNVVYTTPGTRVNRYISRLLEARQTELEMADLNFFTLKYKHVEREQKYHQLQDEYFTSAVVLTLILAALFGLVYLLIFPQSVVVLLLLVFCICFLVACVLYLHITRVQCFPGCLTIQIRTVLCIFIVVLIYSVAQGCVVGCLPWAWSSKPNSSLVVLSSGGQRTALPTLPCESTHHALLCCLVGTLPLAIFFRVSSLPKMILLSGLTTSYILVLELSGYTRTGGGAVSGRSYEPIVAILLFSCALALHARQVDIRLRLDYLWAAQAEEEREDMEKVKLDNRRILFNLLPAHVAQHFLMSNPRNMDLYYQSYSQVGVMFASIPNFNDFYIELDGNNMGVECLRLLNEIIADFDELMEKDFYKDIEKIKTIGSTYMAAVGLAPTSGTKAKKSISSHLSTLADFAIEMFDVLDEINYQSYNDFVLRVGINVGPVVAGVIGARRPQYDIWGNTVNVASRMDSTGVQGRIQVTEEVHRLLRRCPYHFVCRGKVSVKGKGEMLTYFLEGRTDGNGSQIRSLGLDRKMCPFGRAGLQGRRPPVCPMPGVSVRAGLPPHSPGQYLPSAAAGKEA

Consider `O=C(Nc1nnc(-c2ccc3c(c2)CCCC3)o1)c1cccc(C(F)(F)F)c1` [AC10026, N-(5-(5,6,7,8-tetrahydronaphthalen-2-yl)-1,3,4-oxadiazol-2-yl)-3-(trifluoromethyl)benzamide], for which, in test [1], the inhibition at 30 µM was 82 ± 7% and the IC50 is 7.9 ± 3 µM. In test [2], the inhibition at 30 µM worked out at 100 ± 1% and the IC50 turned out to be 1.6 ± 0.2 µM.
Consider `O=C(Nc1nnc(-c2ccc(F)cc2)o1)c1cccc(C(F)(F)F)c1` [AC10028, N-(5-(4-fluorophenyl)-1,3,4-oxadiazol-2-yl)-3-(trifluoromethyl)benzamide], for which, in test [1], the inhibition at 30 µM is 58 ± 1% and the IC50 worked out at 29 ± 1 µM. For the same compound, in test [2], the inhibition at 30 µM turned out to be 99 ± 2% and the IC50 was determined as 5 ± 1 µM.
For `Cc1ccc(C(=O)Nc2nnc(-c3ccc4c(c3)OCCO4)o2)cc1` [AC10029, N-(5-(2,3-dihydrobenzo[b][1,4]dioxin-6-yl)-1,3,4-oxadiazol-2-yl)-4-methylbenzamide], in test [1], the inhibition at 30 µM is 25 ± 6% and the concentration for half-maximal inhibition (IC50) came out at 83 ± 47 µM. In test [2], the inhibition at 30 µM worked out at 86 ± 11% and the IC50 amounted to 11.5 ± 4 µM.
Regarding `Cc1ccc(C(=O)Nc2nnc(-c3ccc(F)cc3)o2)cc1C` [AC10030, N-(5-(4-fluorophenyl)-1,3,4-oxadiazol-2-yl)-3,4-dimethylbenzamide], in test [1], the inhibition at 30 µM was 42 ± 4% and the IC50 stood at 46 ± 7 µM. For the same compound, in test [2], the inhibition at 30 µM was 93 ± 4% and the IC50 turned out to be 6.5 ± 1 µM.
In the same order, the values of `Cc1ccc(C(=O)Nc2nnc(-c3ccc(F)cc3)o2)cc1` [AC10031, N-(5-(4-fluorophenyl)-1,3,4-oxadiazol-2-yl)-4-methylbenzamide] are 31 ± 6%, 61 ± 33 µM, 80 ± 10% and 7.3 ± 2 µM.
Regarding `Cc1ccc(C(=O)Nc2nnc(C3CCCCC3)o2)cc1` [AC10032, N-(5-cyclohexyl-1,3,4-oxadiazol-2-yl)-4-methylbenzamide], the inhibition at 30 µM in test [1] turned out to be 1 ± 12%; in test [2], 78 ± 4%. For the same compound, the IC50 in test [2] was determined as 15.8 ± 2 µM.
For `Cc1ccc(C(=O)Nc2nnc(-c3ccc4c(c3)CCCC4)o2)cc1` [AC10033, 4-methyl-N-(5-(5,6,7,8-tetrahydronaphthalen-2-yl)-1,3,4-oxadiazol-2-yl)benzamide], in test [1], the inhibition at 30 µM stood at 60 ± 8% and the IC50 is 25 ± 6 µM. Besides, in test [2], the inhibition at 30 µM amounted to 100 ± 1% and the half-inhibitory concentration (IC50) is 3.4 ± 1 µM.
With `COc1cccc(C(=O)Nc2nnc(-c3ccc(F)cc3)o2)c1` [AC10034, N-(5-(4-fluorophenyl)-1,3,4-oxadiazol-2-yl)-3-methoxybenzamide], in test [1], the inhibition at 30 µM turned out to be 23 ± 5% and the IC50 came out at 101 ± 14 µM. Besides, in test [2], the inhibition at 30 µM was 79 ± 9% and the IC50 amounted to 15 ± 4 µM.
In the case of `Cc1ccc(C(=O)Nc2nnc(-c3ccc4c(c3)OCCO4)o2)cc1C` [AC10035, N-(5-(2,3-dihydrobenzo[b][1,4]dioxin-6-yl)-1,3,4-oxadiazol-2-yl)-3,4-dimethylbenzamide], in test [1], the inhibition at 30 µM was found to be 61 ± 1% and the IC50 is 14 ± 3 µM. For the same compound, in test [2], the inhibition at 30 µM amounted to 100 ± 1% and the IC50 came out at 5.3 ± 0.4 µM.
As for `O=C(Nc1nnc(-c2ccc(F)cc2)o1)c1ccc(S(=O)(=O)N2CCCCC2)cc1` [AC10036, N-(5-(4-fluorophenyl)-1,3,4-oxadiazol-2-yl)-4-(piperidin-1-ylsulfonyl)benzamide], in test [1], the inhibition at 30 µM was 38 ± 7% and the IC50 was found to be 39 ± 16 µM. Besides, the inhibition at 30 µM in test [2] turned out to be 83 ± 6%.
As for `CC(C)Oc1ccc(C(=O)Nc2nnc(-c3ccc4c(c3)OCCO4)o2)cc1` [AC10037, N-(5-(2,3-dihydrobenzo[b][1,4]dioxin-6-yl)-1,3,4-oxadiazol-2-yl)-4-isopropoxybenzamide], the values for the inhibition at 30 µM in test [1] and in test [2] were 39 ± 7% and 88 ± 3%, respectively. Besides, the IC50 was determined as 56 ± 23 µM in test [1] and 7.5 ± 0.7 µM in test [2].
Consider `COc1cccc(C(=O)Nc2nnc(-c3ccc4c(c3)OCCO4)o2)c1` [AC10038, N-(5-(2,3-dihydrobenzo[b][1,4]dioxin-6-yl)-1,3,4-oxadiazol-2-yl)-3-methoxybenzamide], for which the inhibition at 30 µM in test [1] was found to be 18 ± 10%; in test [2] it was 84 ± 5%. Further, the 50% inhibitory concentration (IC50) in test [1] came to 115 ± 43 µM; in test [2], 9.6 ± 3 µM.
`COc1ccc(C(=O)Nc2nnc(-c3ccc(F)cc3)o2)cc1` [AC10039, N-(5-(4-fluorophenyl)-1,3,4-oxadiazol-2-yl)-4-methoxybenzamide]: the inhibition at 30 µM is 20 ± 6% in test [1] and 73 ± 4% in test [2].
Take `COc1ccc(C(=O)Nc2nnc(C3CCCCC3)o2)cc1` [AC10040, N-(5-cyclohexyl-1,3,4-oxadiazol-2-yl)-4-methoxybenzamide]: the inhibition at 30 µM in test [1] is 6 ± 16%. In test [2], the inhibition at 30 µM was found to be 73 ± 1% and the IC50 was 22 ± 3 µM.
Consider `COc1ccc(C(=O)Nc2nnc(-c3ccc4c(c3)CCCC4)o2)cc1` [AC10041, 4-methoxy-N-(5-(5,6,7,8-tetrahydronaphthalen-2-yl)-1,3,4-oxadiazol-2-yl)benzamide], for which the inhibition at 30 µM came out at 34 ± 11% in test [1] and 94 ± 2% in test [2]. For the same compound, the IC50 is 46 ± 13 µM in test [1] and 6.4 ± 1 µM in test [2].
Regarding `CCc1ccc(C(=O)Nc2nnc(-c3ccc(F)cc3)o2)cc1` [AC10044, 4-ethyl-N-(5-(4-fluorophenyl)-1,3,4-oxadiazol-2-yl)benzamide], in test [1], the inhibition at 30 µM turned out to be 32 ± 12% and the concentration for half-maximal inhibition (IC50) turned out to be 51 ± 7 µM. In test [2], the inhibition at 30 µM came out at 88 ± 4% and the IC50 was determined as 8.2 ± 2 µM.
As to `CCc1ccc(C(=O)Nc2nnc(C3CCCCC3)o2)cc1` [AC10045, N-(5-cyclohexyl-1,3,4-oxadiazol-2-yl)-4-ethylbenzamide], the inhibition at 30 µM in test [1] turned out to be 44 ± 7%; in test [2] it was 91 ± 4%. The values for the IC50 in test [1] and in test [2] were 71 ± 14 µM and 7.3 ± 3 µM, respectively.
In the same order, the values of `O=C(Nc1nnc(-c2ccc(F)cc2)o1)c1cccc(F)c1` [AC10046, 3-fluoro-N-(5-(4-fluorophenyl)-1,3,4-oxadiazol-2-yl)benzamide] are 35 ± 1%, 81 ± 7%, 69 ± 11 µM and 10.6 ± 3 µM.
`O=C(Nc1nnc(C2CCCCC2)o1)c1cccc(F)c1` [AC10047, N-(5-cyclohexyl-1,3,4-oxadiazol-2-yl)-3-fluorobenzamide]: the inhibition at 30 µM in test [1] is 11 ± 3%. In test [2], the inhibition at 30 µM was found to be 79 ± 8% and the IC50 came to 10.5 ± 2 µM.
Regarding `O=C(Nc1nnc(-c2ccc(F)cc2)o1)c1ccc(F)cc1` [AC10052, 4-fluoro-N-(5-(4-fluorophenyl)-1,3,4-oxadiazol-2-yl)benzamide], the inhibition at 30 µM in test [1] came out at 14 ± 3%. In test [2], the inhibition at 30 µM amounted to 64 ± 1% and the IC50 came to 17 ± 2 µM.
Consider `O=C(Nc1nnc(C2CCCCC2)o1)c1ccc(F)cc1` [AC10053, N-(5-cyclohexyl-1,3,4-oxadiazol-2-yl)-4-fluorobenzamide], for which the inhibition at 30 µM in test [1] was determined as 7 ± 4%. In test [2], the inhibition at 30 µM came out at 74 ± 3% and the IC50 was determined as 12.8 ± 1 µM.
In the same order, the values of `O=C(Nc1nnc(-c2ccc(F)cc2)o1)c1ccc(Cl)cc1` [AC10054, 4-chloro-N-(5-(4-fluorophenyl)-1,3,4-oxadiazol-2-yl)benzamide] are 11 ± 9%, 76 ± 1% and 8.9 ± 1 µM.
Turning to `O=C(Nc1nnc(C2CCCCC2)o1)c1ccc(Cl)cc1` [AC10055, 4-chloro-N-(5-cyclohexyl-1,3,4-oxadiazol-2-yl)benzamide], the inhibition at 30 µM in test [1] came to 10 ± 12%. In addition, in test [2], the inhibition at 30 µM turned out to be 71 ± 5% and the 50% inhibitory concentration (IC50) was found to be 13.5 ± 2 µM.
